Experimental data from the NIST ThermoML archive (doi:10.1021/acs.jced.5b00934).
± gives the expanded uncertainty stated by the source.

Conditions: Liquid, Vibrating tube method

CC(C)(C)O [2-methylpropan-2-ol]
Conditions | mass density [kg/m3]
333.15 K, 50000 kPa | 788.7 ± 0.9
333.15 K, 52050 kPa | 790.2 ± 0.9
333.15 K, 55010 kPa | 792.3 ± 1
333.15 K, 57996 kPa | 794.3 ± 1
333.15 K, 60003 kPa | 795.6 ± 1
338.15 K, 100 kPa | 737.1 ± 0.8
338.15 K, 309 kPa | 737.3 ± 0.8
338.15 K, 505 kPa | 737.6 ± 0.8
338.15 K, 898 kPa | 738.1 ± 0.8
338.15 K, 1003 kPa | 738.2 ± 0.8
338.15 K, 2001 kPa | 739.5 ± 0.8
338.15 K, 3005 kPa | 740.8 ± 0.8
338.15 K, 5003 kPa | 743.2 ± 0.8
338.15 K, 7014 kPa | 745.6 ± 0.8
338.15 K, 9004 kPa | 747.9 ± 0.8
338.15 K, 10002 kPa | 749 ± 0.8
338.15 K, 11998 kPa | 751.2 ± 0.8
338.15 K, 14999 kPa | 754.4 ± 0.8
338.15 K, 17997 kPa | 757.5 ± 0.8
338.15 K, 20007 kPa | 759.4 ± 0.9
338.15 K, 21999 kPa | 761.4 ± 0.9
338.15 K, 25000 kPa | 764.2 ± 0.9
338.15 K, 27994 kPa | 766.9 ± 0.9
338.15 K, 30011 kPa | 768.6 ± 0.9
338.15 K, 32005 kPa | 770.4 ± 0.9
338.15 K, 32998 kPa | 771.2 ± 0.9
338.15 K, 33033 kPa | 771.2 ± 0.9
338.15 K, 34007 kPa | 772 ± 0.9
338.15 K, 35000 kPa | 772.9 ± 0.9
338.15 K, 38031 kPa | 775.3 ± 0.9
338.15 K, 40024 kPa | 776.9 ± 0.9
338.15 K, 41998 kPa | 778.5 ± 0.9
338.15 K, 43195 kPa | 779.4 ± 0.9
338.15 K, 44574 kPa | 780.4 ± 0.9
338.15 K, 46152 kPa | 781.6 ± 0.9
338.15 K, 48333 kPa | 783.3 ± 0.9
338.15 K, 50050 kPa | 784.5 ± 0.9
338.15 K, 52462 kPa | 786.3 ± 1
338.15 K, 56690 kPa | 789.2 ± 1
338.15 K, 60003 kPa | 791.5 ± 1
343.15 K, 99 kPa | 731 ± 0.8
343.15 K, 305 kPa | 731.3 ± 0.8
343.15 K, 503 kPa | 731.6 ± 0.8
343.15 K, 901 kPa | 732.1 ± 0.8
343.15 K, 1002 kPa | 732.2 ± 0.8
343.15 K, 2000 kPa | 733.6 ± 0.8
343.15 K, 3001 kPa | 734.9 ± 0.8
343.15 K, 5005 kPa | 737.5 ± 0.8
343.15 K, 7004 kPa | 740 ± 0.8
343.15 K, 9033 kPa | 742.4 ± 0.8
343.15 K, 10020 kPa | 743.6 ± 0.8
343.15 K, 12001 kPa | 745.8 ± 0.8
343.15 K, 15002 kPa | 749.1 ± 0.8
343.15 K, 18001 kPa | 752.3 ± 0.9
343.15 K, 20018 kPa | 754.4 ± 0.9
343.15 K, 21994 kPa | 756.4 ± 0.9
343.15 K, 25026 kPa | 759.3 ± 0.9
343.15 K, 27993 kPa | 762.1 ± 0.9
343.15 K, 30004 kPa | 763.9 ± 0.9
343.15 K, 32000 kPa | 765.7 ± 0.9
343.15 K, 32963 kPa | 766.6 ± 0.9
343.15 K, 33001 kPa | 766.6 ± 0.9
343.15 K, 34002 kPa | 767.5 ± 0.9
343.15 K, 35003 kPa | 768.3 ± 0.9
343.15 K, 38027 kPa | 770.8 ± 0.9
343.15 K, 39998 kPa | 772.5 ± 0.9
343.15 K, 42000 kPa | 774.1 ± 0.9
348.15 K, 98 kPa | 725.1 ± 0.8
348.15 K, 295 kPa | 725.3 ± 0.8
348.15 K, 498 kPa | 725.7 ± 0.8
348.15 K, 898 kPa | 726.2 ± 0.8
348.15 K, 1004 kPa | 726.4 ± 0.8
348.15 K, 2006 kPa | 727.8 ± 0.8
348.15 K, 3001 kPa | 729.2 ± 0.8
348.15 K, 5005 kPa | 731.9 ± 0.8
348.15 K, 6999 kPa | 734.5 ± 0.8
348.15 K, 9012 kPa | 737 ± 0.8
348.15 K, 10014 kPa | 738.2 ± 0.8
348.15 K, 12003 kPa | 740.6 ± 0.8
348.15 K, 14999 kPa | 744 ± 0.8
348.15 K, 17999 kPa | 747.3 ± 0.9
348.15 K, 20000 kPa | 749.4 ± 0.9
348.15 K, 21998 kPa | 751.5 ± 0.9
348.15 K, 24996 kPa | 754.4 ± 0.9
348.15 K, 27995 kPa | 757.3 ± 0.9
348.15 K, 30045 kPa | 759.3 ± 0.9
348.15 K, 32000 kPa | 761 ± 0.9
348.15 K, 32878 kPa | 761.8 ± 0.9
348.15 K, 33012 kPa | 761.9 ± 0.9
348.15 K, 34000 kPa | 762.8 ± 0.9
348.15 K, 35001 kPa | 763.7 ± 0.9
348.15 K, 38001 kPa | 766.3 ± 0.9
348.15 K, 39999 kPa | 768 ± 0.9
348.15 K, 41997 kPa | 769.6 ± 0.9
348.15 K, 44999 kPa | 772 ± 0.9
353.15 K, 99 kPa | 719 ± 0.8
353.15 K, 300 kPa | 719.3 ± 0.8
353.15 K, 501 kPa | 719.6 ± 0.8
353.15 K, 897 kPa | 720.2 ± 0.8
353.15 K, 1000 kPa | 720.3 ± 0.8
353.15 K, 2000 kPa | 721.8 ± 0.8
353.15 K, 2999 kPa | 723.2 ± 0.8
353.15 K, 4999 kPa | 726.1 ± 0.8
353.15 K, 6999 kPa | 728.8 ± 0.8
353.15 K, 8998 kPa | 731.4 ± 0.8
353.15 K, 10003 kPa | 732.6 ± 0.8
353.15 K, 11997 kPa | 735.1 ± 0.8
353.15 K, 15001 kPa | 738.7 ± 0.8
353.15 K, 17999 kPa | 742.1 ± 0.9
353.15 K, 20000 kPa | 744.2 ± 0.9
353.15 K, 21999 kPa | 746.4 ± 0.9
353.15 K, 24997 kPa | 749.4 ± 0.9
353.15 K, 27999 kPa | 752.5 ± 0.9
353.15 K, 30004 kPa | 754.4 ± 0.9
353.15 K, 32003 kPa | 756.3 ± 0.9
353.15 K, 32985 kPa | 757.1 ± 0.9
353.15 K, 33002 kPa | 757.2 ± 0.9
353.15 K, 34000 kPa | 758.1 ± 0.9
353.15 K, 35004 kPa | 759 ± 0.9
353.15 K, 38477 kPa | 762.2 ± 0.9
353.15 K, 40002 kPa | 763.4 ± 0.9
353.15 K, 42035 kPa | 765.1 ± 0.9
353.15 K, 45022 kPa | 767.6 ± 0.9
353.15 K, 48092 kPa | 770.1 ± 1
353.15 K, 49989 kPa | 771.5 ± 1
358.15 K, 103 kPa | 712.8 ± 0.8
358.15 K, 293 kPa | 713.1 ± 0.8
358.15 K, 498 kPa | 713.4 ± 0.8
358.15 K, 899 kPa | 714 ± 0.8
358.15 K, 1003 kPa | 714.2 ± 0.8
358.15 K, 2008 kPa | 715.7 ± 0.8
358.15 K, 3003 kPa | 717.3 ± 0.8
358.15 K, 5003 kPa | 720.2 ± 0.8
358.15 K, 7003 kPa | 723 ± 0.8
358.15 K, 9001 kPa | 725.8 ± 0.8
358.15 K, 9998 kPa | 727.1 ± 0.8
358.15 K, 12010 kPa | 729.7 ± 0.8
358.15 K, 14999 kPa | 733.3 ± 0.8
358.15 K, 18040 kPa | 736.9 ± 0.9
358.15 K, 19997 kPa | 739.1 ± 0.9
358.15 K, 21995 kPa | 741.3 ± 0.9
358.15 K, 25017 kPa | 744.5 ± 0.9
358.15 K, 27994 kPa | 747.6 ± 0.9
358.15 K, 29991 kPa | 749.6 ± 0.9
358.15 K, 32001 kPa | 751.5 ± 0.9
358.15 K, 32997 kPa | 752.5 ± 0.9
358.15 K, 33015 kPa | 752.5 ± 0.9
358.15 K, 34056 kPa | 753.5 ± 0.9
358.15 K, 35075 kPa | 754.4 ± 0.9
358.15 K, 37998 kPa | 757 ± 0.9
358.15 K, 40001 kPa | 758.8 ± 0.9
358.15 K, 42007 kPa | 760.6 ± 0.9
358.15 K, 45002 kPa | 763.1 ± 0.9
358.15 K, 47995 kPa | 765.5 ± 1
358.15 K, 50001 kPa | 767 ± 1
363.15 K, 299 kPa | 706.4 ± 0.8
363.15 K, 502 kPa | 706.8 ± 0.8
363.15 K, 901 kPa | 707.4 ± 0.8
363.15 K, 1002 kPa | 707.6 ± 0.8
363.15 K, 2001 kPa | 709.2 ± 0.8
363.15 K, 3005 kPa | 710.8 ± 0.8
363.15 K, 5002 kPa | 713.9 ± 0.8
363.15 K, 7023 kPa | 716.9 ± 0.8
363.15 K, 9001 kPa | 719.7 ± 0.8
363.15 K, 10009 kPa | 721.1 ± 0.8
363.15 K, 12038 kPa | 723.8 ± 0.8
363.15 K, 14998 kPa | 727.6 ± 0.8
363.15 K, 18000 kPa | 731.3 ± 0.9
363.15 K, 20033 kPa | 733.7 ± 0.9
363.15 K, 22005 kPa | 735.9 ± 0.9
363.15 K, 25000 kPa | 739.2 ± 0.9
363.15 K, 28009 kPa | 742.4 ± 0.9
363.15 K, 30011 kPa | 744.4 ± 0.9
363.15 K, 32033 kPa | 746.5 ± 0.9
363.15 K, 32982 kPa | 747.4 ± 0.9
363.15 K, 33012 kPa | 747.4 ± 0.9
363.15 K, 34035 kPa | 748.4 ± 0.9
363.15 K, 34999 kPa | 749.3 ± 0.9
363.15 K, 37998 kPa | 752.1 ± 0.9
363.15 K, 39147 kPa | 753.2 ± 0.9
363.15 K, 40009 kPa | 753.9 ± 0.9
363.15 K, 41998 kPa | 755.7 ± 0.9
363.15 K, 44999 kPa | 758.4 ± 0.9
363.15 K, 47996 kPa | 760.9 ± 1
363.15 K, 49998 kPa | 762.5 ± 1
363.15 K, 52002 kPa | 764.2 ± 1
363.15 K, 55003 kPa | 766.6 ± 1
363.15 K, 57998 kPa | 768.9 ± 1
363.15 K, 59999 kPa | 770.4 ± 1
363.16 K, 38458 kPa | 752.5 ± 0.9
